Assay results from ChEMBL document CHEMBL5214960 (J Med Chem, 2022).
Changes are numbered by the printed parent chain. Converted amounts (≈) assume the structure as drawn.

Legend:
[1] = molecular target: T1, Low molecular weight phosphotyrosine protein phosphatase (Homo sapiens, UniProt P24666); test: Inhibition of His-tagged human LMW-PTP expressed in Escherichia coli BL21 using pNPP as substrate incubated for 10 mins by microplate reader based spectrophotometric analysis
T1 sequence (P24666 whole entry): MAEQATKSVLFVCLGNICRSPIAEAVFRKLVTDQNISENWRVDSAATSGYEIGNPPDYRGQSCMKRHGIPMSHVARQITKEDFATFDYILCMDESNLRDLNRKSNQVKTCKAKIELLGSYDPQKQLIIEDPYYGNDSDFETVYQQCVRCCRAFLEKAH

[2] = Tmax in Sprague-Dawley rat plasma at 30 mg/kg, po measured after 24 hrs by LC-MS/MS analysis; format: ADME, organism-based; conditions: in vivo
[3] = AUC(0 to 12 hrs) in Sprague-Dawley rat plasma at 30 mg/kg, po measured after 24 hrs by LC-MS/MS analysis; format: ADME, organism-based; design: time 24 hrs, dose 30 mg/kg, route po; conditions: in vivo
[4] = Unbound Cmax in plasma of CD-1 mouse at 2 mg/kg, iv measured after 8 hrs by LC-MS/MS analysis; format: ADME, organism-based; conditions: in vivo
[5] = molecular target: T2, Low molecular weight phosphotyrosine protein phosphatase (Mus musculus, UniProt Q9D358); test: Inhibition of N-terminal His-tagged full length mouse LMW-PTP expressed in Escherichia coli BL21(DE3) by […] analysis
T2 sequence (Q9D358 whole entry): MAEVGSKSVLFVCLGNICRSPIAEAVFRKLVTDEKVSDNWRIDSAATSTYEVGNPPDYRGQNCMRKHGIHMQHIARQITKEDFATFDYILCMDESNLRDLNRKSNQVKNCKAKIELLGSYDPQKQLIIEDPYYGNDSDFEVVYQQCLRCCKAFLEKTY

[6] = Metabolic stability in mouse hepatic microsome at 4 uM measured after 30 mins by LC-MS analysis; format: ADME; conditions: liver microsomes, read-out: Stability
[7] = Inhibition of PTP-Meg2 (unknown origin); design: species or system Homo sapiens
[8] = Plasma protein binding in mouse assessed as unbound fraction measured after 4.5 hrs by LC-MS/MS analysis; format: ADME, cell-free
[9] = Unbound Cmax in plasma of Sprague-Dawley rat at 30 mg/kg, po measured after 24 hrs by LC-MS/MS analysis; format: ADME, organism-based; conditions: in vivo
[10] = Aqueous solubility of compound at pH 6 by HPLC analysis; format: physicochemical; conditions: buffer
[11] = Cmax in CD-1 mouse plasma at 2 mg/kg, iv measured after 8 hrs by LC-MS/MS analysis; format: ADME, organism-based; design: time 8 hrs, dose 2 mg/kg, route iv
[12] = Half life in Sprague-Dawley rat plasma at 30 mg/kg, po measured after 24 hrs by LC-MS/MS analysis; format: ADME, organism-based; conditions: in vivo
[13] = Cmax in CD-1 mouse plasma at 10 mg/kg, po measured after 8 hrs by LC-MS/MS analysis; format: ADME, organism-based; design: dose 10 mg/kg, time 8 hrs, route po
CYP2D6 = CYP2D6 (Homo sapiens, UniProt P10635); test: Inhibition of human hepatic CYP2D6 using bufuralol HCL as substrate measured after 3 mins by LC-MS analysis relative to control; format: ADME, tissue-based; design: concentration or dose not given beside the values; conditions: human hepatic CYP2D6 (liver), probe bufuralol HCl
[14] = Volume of distribution at steady state in CD-1 mouse plasma at 2 mg/kg, iv measured after 8 hrs by LC-MS/MS analysis; format: ADME, organism-based; conditions: in vivo
[15] = Half life in CD-1 mouse plasma at 2 mg/kg, iv measured after 8 hrs by LC-MS/MS analysis; format: ADME, organism-based
[16] = AUC(0 to 8 hrs) in CD-1 mouse plasma at 2 mg/kg, iv measured after 8 hrs by LC-MS/MS analysis; format: ADME, organism-based; design: dose 2 mg/kg, time 8 hrs, route iv; conditions: in vivo
CYP3A4 = CYP3A4 (Homo sapiens, UniProt P08684); test: Inhibition of human hepatic CYP3A4 using midazolam as substrate measured after 3 mins by LC-MS analysis relative to control; format: ADME, tissue-based; design: concentration or dose not given beside the values; conditions: human hepatic CYP3A4 (liver), probe midazolam
[17] = AUC(0 to 8 hrs) in CD-1 mouse plasma at 10 mg/kg, po measured after 8 hrs by LC-MS/MS analysis; format: ADME, organism-based; design: dose 10 mg/kg, time 8 hrs, route po; conditions: in vivo
[18] = Metabolic stability in dog hepatic microsome at 4 uM measured after 30 mins by LC-MS analysis; format: ADME, Canis lupus familiaris; conditions: liver microsomes, read-out: Stability
[19] = Half life in CD-1 mouse plasma at 10 mg/kg, po measured after 8 hrs by LC-MS/MS analysis; format: ADME, organism-based; conditions: in vivo
[20] = molecular target: Dual specificity protein phosphatase 23 (Homo sapiens, UniProt Q9BVJ7); test: Inhibition of VHZ (unknown origin)
[21] = Metabolic stability in human hepatic microsome at 4 uM measured after 30 mins by LC-MS analysis; format: ADME; conditions: liver microsomes, read-out: Stability
[22] = Unbound Cmax in plasma of CD-1 mouse at 10 mg/kg, po measured after 8 hrs by LC-MS/MS analysis; format: ADME, organism-based; conditions: in vivo
[23] = molecular target: T3, Low molecular weight phosphotyrosine protein phosphatase (Rattus norvegicus, UniProt P41498); test: Inhibition of N-terminal His-tagged full length rat LMW-PTP expressed in Escherichia coli BL21(DE3)
T3 sequence (P41498 whole entry): T2 sequence (Q9D358 whole entry) with K35N, R65K, K80R, Y158H

[24] = Oral bioavailability in CD-1 mouse plasma at 10 mg/kg measured after 8 hrs by LC-MS/MS analysis; format: ADME, organism-based; conditions: mouse, in vivo, po, 10 mg/kg, 8 h
CYP2C9 = CYP2C9 (Homo sapiens, UniProt P11712); test: Inhibition of human hepatic CYP2C9 using diclofenac as substrate measured after 10 mins by LC-MS analysis relative to control; format: ADME, tissue-based; design: concentration or dose not given beside the values; conditions: human hepatic CYP2C9 (liver), probe diclofenac
[25] = Cmax in Sprague-Dawley rat plasma at 30 mg/kg, po measured after 24 hrs by LC-MS/MS analysis; format: ADME, organism-based; design: time 24 hrs, dose 30 mg/kg, route po; conditions: in vivo

CYP2D6, sequence (P10635 whole entry): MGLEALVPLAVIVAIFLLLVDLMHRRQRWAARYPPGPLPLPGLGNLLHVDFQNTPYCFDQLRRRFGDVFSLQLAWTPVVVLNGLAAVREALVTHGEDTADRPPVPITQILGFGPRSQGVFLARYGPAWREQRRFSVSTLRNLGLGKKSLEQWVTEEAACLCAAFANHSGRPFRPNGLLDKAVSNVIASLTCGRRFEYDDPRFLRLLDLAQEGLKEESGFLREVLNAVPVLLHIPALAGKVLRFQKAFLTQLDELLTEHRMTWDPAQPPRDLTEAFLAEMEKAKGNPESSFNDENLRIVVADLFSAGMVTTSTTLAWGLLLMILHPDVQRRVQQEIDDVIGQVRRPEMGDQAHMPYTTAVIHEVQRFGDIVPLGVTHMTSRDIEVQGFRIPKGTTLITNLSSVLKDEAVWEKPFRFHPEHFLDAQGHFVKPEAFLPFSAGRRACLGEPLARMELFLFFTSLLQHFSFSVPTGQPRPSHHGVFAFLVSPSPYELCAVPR
CYP2C9, sequence (P11712 whole entry): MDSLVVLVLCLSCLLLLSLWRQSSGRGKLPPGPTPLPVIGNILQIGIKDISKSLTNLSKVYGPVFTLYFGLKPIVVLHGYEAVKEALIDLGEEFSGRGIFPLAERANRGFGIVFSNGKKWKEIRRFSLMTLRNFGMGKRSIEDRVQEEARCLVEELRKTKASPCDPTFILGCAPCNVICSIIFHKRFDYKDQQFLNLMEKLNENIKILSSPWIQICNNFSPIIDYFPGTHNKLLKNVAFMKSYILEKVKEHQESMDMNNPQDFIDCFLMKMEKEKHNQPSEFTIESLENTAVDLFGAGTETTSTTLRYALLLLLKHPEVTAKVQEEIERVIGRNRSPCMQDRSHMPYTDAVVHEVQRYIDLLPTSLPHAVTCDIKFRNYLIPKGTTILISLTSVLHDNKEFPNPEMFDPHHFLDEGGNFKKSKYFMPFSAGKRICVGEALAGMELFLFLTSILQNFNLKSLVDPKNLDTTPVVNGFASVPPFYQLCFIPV
CYP3A4, sequence (P08684 whole entry): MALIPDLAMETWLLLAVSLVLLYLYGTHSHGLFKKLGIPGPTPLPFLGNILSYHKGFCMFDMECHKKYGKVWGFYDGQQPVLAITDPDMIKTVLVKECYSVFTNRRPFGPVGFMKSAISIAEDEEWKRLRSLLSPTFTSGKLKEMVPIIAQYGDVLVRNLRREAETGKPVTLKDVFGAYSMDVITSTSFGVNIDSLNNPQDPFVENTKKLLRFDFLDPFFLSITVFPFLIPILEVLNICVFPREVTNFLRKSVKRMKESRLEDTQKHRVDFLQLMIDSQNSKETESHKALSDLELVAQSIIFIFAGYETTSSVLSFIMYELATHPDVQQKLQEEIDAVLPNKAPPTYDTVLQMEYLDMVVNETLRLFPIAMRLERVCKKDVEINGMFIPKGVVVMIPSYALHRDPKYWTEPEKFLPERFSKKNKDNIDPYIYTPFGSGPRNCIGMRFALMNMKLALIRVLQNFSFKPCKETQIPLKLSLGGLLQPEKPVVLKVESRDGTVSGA
Dual specificity protein phosphatase 23, sequence (Q9BVJ7 whole entry): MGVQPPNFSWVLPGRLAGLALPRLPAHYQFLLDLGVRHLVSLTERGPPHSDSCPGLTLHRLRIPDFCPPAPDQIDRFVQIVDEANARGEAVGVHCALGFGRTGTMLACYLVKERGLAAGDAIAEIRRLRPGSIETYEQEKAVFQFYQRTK

Row | SMILES | IC50 [1] [µM] | remaining at 0.5 h, 4 µM [6] [%] | Fu [8] | inhibition at 0.05 h (CYP2D6) [%] | inhibition at 0.05 h (CYP3A4) [%] | remaining at 0.5 h, 4 µM [18] [%] | remaining at 0.5 h, 4 µM [21] [%] | inhibition at 10 min (CYP2C9) [%] | further results
1 | O=C(CS(=O)(=O)O)Nc1nc2cccc([N+](=O)[O-])c2s1 | 1.5 | – | – | – | – | – | – | – | –
2 | Cc1c(Br)cc(NC(=O)CS(=O)(=O)O)cc1Br | 2.2 | 0 | < 0.008 | 1 | 15 | 23 | 7 | 18 | Tmax [2]: 1.7 h; AUC [3]: 21.1 µM·h; fCmax [4]: < 16 nM; IC50 [5]: 0.062 µM; IC50 [7]: > 100 µM; fCmax [9]: < 85 nM; solubility [10]: 740 µg/mL (≈ 1910 µM); Cmax [11]: 2000 nM; t1/2 [12]: 3.6 h; Cmax ([13]; CD-1, mouse, plasma): 2000 nM; Vdss [14]: 0.58 L/kg; half-life ([15]; CD-1, mouse, plasma): 1.5 h; AUC [16]: 4.1 µM·h; AUC [17]: 8.8 µM·h; t1/2 [19]: 4.2 h; IC50 [20]: > 100 µM; fCmax [22]: < 16 nM; IC50 [23]: 0.062 µM; F [24]: 43%; Cmax [25]: 3030 nM
3 | O=C(CS(=O)(=O)O)Nc1cc(Br)cc2ccccc12 | 6 | – | – | – | – | – | – | – | –
4 | O=C(CS(=O)(=O)O)Nc1cc(Br)cc([N+](=O)[O-])c1 | 3.4 | – | – | – | – | – | – | – | –
5 | O=C(CS(=O)(=O)O)Nc1nc2ccccc2s1 | – | 3 | 0.209 | 0 | 6 | 11 | 18 | 1 | solubility [10]: 530 µg/mL (≈ 1950 µM)
6 | O=C(Nc1ccc(N2CCOCC2)c(Br)c1)NS(=O)(=O)O | 0.008 | – | – | – | – | – | – | – | –
7 | O=C(CS(=O)(=O)O)Nc1cc(C(F)(F)F)cc(C(F)(F)F)c1 | 5.4 | – | – | – | – | – | – | – | –
8 | O=C(CS(=O)(=O)O)Nc1nc2ccc([N+](=O)[O-])cc2s1 | 0.2 | 4 | 0.057 | 1 | 0 | 7 | 53 | 0 | solubility [10]: 590 µg/mL (≈ 1860 µM)
9 | O=C(CS(=O)(=O)O)Nc1ccc(N2CCOCC2)c(Br)c1 | 1.5 | 3 | 0.243 | 20 | 36 | 11 | 3 | 64 | Tmax [2]: 1 h; AUC [3]: 1.23 µM·h; fCmax [4]: 1966 nM; IC50 [5]: 0.036 µM; fCmax [9]: 43 nM; solubility [10]: 760 µg/mL (≈ 2000 µM); Cmax [11]: 8090 nM; t1/2 [12]: 6.8 h; Cmax ([13]; mouse, in vivo, 8 h): 483 nM; Vdss [14]: 0.73 L/kg; t1/2 ([15]; mouse, in vivo, iv, 2 mg/kg, 8 h): 0.2 h; AUC [16]: 1.72 µM·h; AUC [17]: 1.94 µM·h; t1/2 [19]: 4.2 h; fCmax [22]: 117 nM; IC50 [23]: 0.036 µM; F [24]: 23%; Cmax [25]: 258 nM
10 | Cc1c(Br)cc(NC(=O)[C@@H](C#N)S(=O)(=O)O)cc1Br | 4.4 | – | – | – | – | – | – | – | –
11 | O=C(CS(=O)(=O)O)Nc1cc(Br)cc(Br)c1 | 6 | – | – | – | – | – | – | – | –
12 | O=C(CS(=O)(=O)O)Nc1cc(I)cc(I)c1 | 3.4 | – | – | – | – | – | – | – | –
13 | O=C(Nc1ccccc1)NS(=O)(=O)O | 0.121 | – | – | – | – | – | – | – | –
14 | N.O=C(Nc1nc2ccccc2s1)NS(=O)(=O)O | 0.056 | 0 | 0.07 | 0 | 4 | 0 | 7 | 0 | –
15 | O=C(CS(=O)(=O)O)Nc1cc(Cl)cc(Cl)c1 | 8.6 | – | – | – | – | – | – | – | –
16 | O=C(CS(=O)(=O)O)Nc1cnc2ncccc2c1 | 1.5 | – | – | – | – | – | – | – | –
